“Also recorded” adds a separate entry of the source.
Key:
MCF-7 cells = test: Immunofluorescence of EMT markers E-cadherin and vimentin in MCF-7 cells; format: cell-based
Protocol: (§1) Three different mechanisms of action were used to induce EMT in breast and colorectal adenocarcinoma cell lines. Breast cancer MCF-7 cells were treated with 150 micromolar (μM) cobalt chloride (CoCl2) for 48 hours. Initially, a working stock solution of 2500 μM COCl2 was prepared by dilution in distilled water. The resulting solution was further diluted upon administration to cells cultured in cell culture media. Cell culture media composition: Dulbecco's Modified Eagle's Medium (DMEM) (Sigma Aldrich, UK) supplemented with 10% foetal bovine serum (FBS) (Celtic Molecular Diagnostics, SA) and 1% Penicillin-Streptomycin (Sigma Aldrich, UK). NMuMg cells (a normal mouse mammary cell line) were treated with 10 nanograms/millilitre of transforming growth factor beta 1 (TGF-β) for 48 hours. A stock solution of TGF-β was prepared by reconstituting 2 μg of recombinant TGF-β at 20 μg/mL in sterile 4 mM HCl containing 1 mg/mL of bovine serum albumin (BSA) diluted in water. NMuMG cells were cultured in Dulbecco's Modified Eagle Medium (DMEM) (ThermoFisher Scientific, USA), supplemented with 10% FBS, 1% Penicillin-Streptomycin, 1% GlutaMAX, and 10 μg/mL insulin. Colorectal cancer HT-29 cells were treated with 50 nanograms/millilitre of interleukin-6 (IL-6) for 24 hours. A working stock solution of 1 micrograms/millilitre of IL-6 was prepared by dilution in 0.1% BSA in phosphate-buffered saline (PBS). The resulting solution was further diluted upon administration to cells cultured in cell culture media. […]
(§2) Protein expression of EMT molecular markers in control and CoCl2, TGF-β and IL-6 treated cells was detected by employing immunofluorescence microscopy. […] E-cadherin expression was detected by Alexa Fluor 488 staining (green) while nuclei were stained with DAPI (blue) (FIG. 1). Vimentin expression was detected by Texas Red staining (red) while nuclei were stained with DAPI (blue) (FIG. 2). […]
(§3) Methyl-β-cyclodextrin (MβCD) was employed as a positive control, as it is a well-documented cholesterol depletory agent. […] Immunofluorescence intensity was quantified by utilising the ImageJ software (NIH, USA). Cells of interest and background fluorescence was analysed by considering the following parameters: area, integrated density and mean grey value. Corrected total cellular fluorescence was calculated as follows: CTCF=Integrated Density−(Area of selected cell×Mean fluorescence of background readings).
(§4) The protein expression of E-cadherin following treatment with various cholesterol targeting agents in MCF-7, NMuMg, and HT-29 cells, pre- and post-EMT induction was investigated. E-cadherin expression was determined by Alexa Fluor 488 staining (green) while nuclei were stained with DAPI (blue). […]

NMuMg cells [1] = test: Immunofluorescence of EMT markers E-cadherin and vimentin in NMuMg cells; format: cell-based, mouse
Protocol: as §1, §2, §3, §4

HT-29 cells [2] = test: Immunofluorescence of EMT markers E-cadherin and vimentin in HT-29 cells; format: cell-based
Protocol: as §1, §2, §3, §4

[3] = system: multidrug resistance protein 1 (MDR1); test: Vybrant MDR assay (calcein AM retention); format: cell-based; conditions: HT-29 cells treated with the FOLFOX chemotherapy cocktail; 1 mM MβCD, 10 mM HPβCD; preliminary data
Protocol: To assess the multi-drug resistant potential of cells pre- and post-EMT, the Vybrant® MDR Assay Kit (ThermoFisher Scientific, USA) was employed. This assay relies on the administration of an appropriate multidrug resistance protein 1 (MDR1) substrate, calcein acetoxymethyl ester (calcein AM) where drug-efflux potential is assessed by measuring the levels of intracellular calcein fluorescence. 10 000 cells were seeded per well in a 96-black walled plate. Following the 2-hour treatment period, cells were incubated with 0.25 μM Calcein-AM for 30 minutes at 37° C. Following this, two PBS washes were completed, and PBS administered to each well to ascertain fluorescence intensity. The Victor Nivo multi-mode microplate reader (Perkin Elmer, USA) was utilised with the excitation maximum set to 494 nm and the emission maximum set to 517 nm.
This can be attributed to alterations in lipid-raft membrane structure resulting in translocation of MDR1 to detergent soluble fractions which affects basal ATPase activity. This consequently affects the efflux potential of the MDR1 transporter. […] Fluorescence intensity (RFU) was quantified using the Victor Nivo multi-mode microplate reader (Perkin Elmer, USA) with the excitation maximum set to 494 nm and the emission maximum set to 517 nm.

[4] = Toxicity of HPβCD compared to simvastatin
HT-29 cells [5] = test: HT-29 colorectal cancer xenograft in NOD/SCID mice: tumour size, weight, metastasis; format: in vivo; parameters: Tumour reduction / Tumour gain or reduction: concentration or dose not given beside the values; conditions: for Average tumour size / Average tumour weight: group average, 4 mice, 3 000 mg/kg HPβCD, 10 mg/kg OXAL, 30 mg/kg 5FU i.p.; for Tumour reduction: tumour size; for Tumour reduction / Tumour gain or reduction: as compared to the untreated group; for Tumour gain or reduction: tumour weight
Protocol: (§5) In order to investigate the in vivo application of HPβCD as an anti-cancer agent for colorectal cancer (CRC) using NOD/SCID mice, 24 NOD/SCID mice (5-8 weeks old) were injected with 4×10^6 HT-29 cells (suspended in 10% McCoy's media and 1×PBS), until tumours developed. Once tumours reached a size of 150-200 mm^3 (1-2 weeks), treatments (12 treatments in total for each group, however only up to 6 treatments for the OXAL treated group due to obvious toxicity) were given. Treatment groups consisted of 4 mice each and included a control group (injected with 1×PBS), a group treated with HPβCD, a group treated with Oxaliplatin (OXAL) only, a group treated with 5-Fluorouracil (5FU) only, a group treated with HPβCD and OXAL and lastly a group treated with HPβCD and 5FU. Mice were intraperitoneally injected with 3 000 mg/kg of HPβCD, 10 mg/kg of OXAL and 30 mg/kg of 5FU thrice a week for 4 weeks. For combination treatments HPβCD was administered with either 5FU or OXAL chemotherapy. Mice were weighed three times a week and averages were calculated to show per week weights. When mice were euthanized, serum was collected from whole blood samples and this was further used to test cholesterol levels, as well as Aspartate aminotransferase (AST) and Alanine aminotransferase (ALT) as a measure for liver toxicity. They were then perfused and all organs, including tumours, were harvested. All organs were snap frozen and stored at −80° C. Tumour samples were further stored in 10% neutral buffered formalin (4° C.) and RNA Later (−80° C.).

[6] = Tolerability of treatments in tumour-bearing NOD/SCID mice; format: in vivo
Protocol: as §5

[7] = Serum cholesterol levels post treatment; format: in vivo, NOD/SCID mice
Protocol: as §5

[8] = Serum AST and ALT as a measure of liver toxicity; conditions: mouse, in vivo
Protocol: as §5, with “When mice were euthanized, serum was collected from whole blood samples and this was further used to test cholesterol levels, as well as Aspartate aminotransferase (AST) and Alanine aminotransferase (ALT) as a measure for liver toxicity. They were then perfused and all organs, including tumours, were harvested. All organs were snap frozen and stored at −80° C. Tumour samples were further stored in 10% neutral buffered formalin (4° C.) and RNA Later (−80° C.).” left out
Blood was collected post euthanization and serum was analysed for AST and ALT levels using the IDEXX Catalyst DX Chemistry Analyzer. […]

NMuMg cells [9] = test: RT-qPCR of cholesterol-related genes in NMuMg cells; conditions: NMuMg post-EMT
Protocol: Relative expression is presented as log 2 fold changes between conditions.
To delineate the molecular mechanism governing cholesterol-mediated EMT induction, RT-qPCR analysis of the major cholesterol-related genes were assessed in the NMuMg cell line. RNA was extracted using the Direct-Zol™ RNA MiniPrep kit (Zymo Research, Inqaba Biotec™, SA). RNA extraction was carried out as per the manufacturer's protocol. Total RNA of 1 μg was utilised for cDNA synthesis using the RevertAidFirst Strand cDNA Synthesis kit (Thermo Fisher Scientific, USA) and was carried out according to the manufacturer's protocol. qPCR was performed using the SensiFAST™ SYBR® No-ROX kit, utilising a 3-step cycle on the CFX96 Touch™ Real-Time PCR detection system (Bio-Rad).

[10] = MCF-7, post-EMT (CoCl2), 2-hour treatment, 10 mM HPβCD, 1 mM MβCD
[11] = post-EMT (TGF-β), 2-hour treatment, 10 mM HPβCD, 1 mM MβCD
[12] = HT-29, post-EMT (IL-6), 2-hour treatment, 10 mM HPβCD, 1 mM MβCD
[13] = MCF-7, 150 μM CoCl2 for 48 hours vs control
[14] = HT-29, 50 ng/mL IL-6 for 24 hours vs control
[15] = 10 ng/mL TGF-β for 48 hours vs control

## 2-hydroxypropyl-β-cyclodextrin [HPβCD]
MCF-7 cells; [10]
  E-cadherin expression (immunofluorescence): increase
  vimentin expression (immunofluorescence): decrease
NMuMg cells [1]; [11]
  E-cadherin expression (immunofluorescence): increase
  vimentin expression (immunofluorescence): decrease
HT-29 cells [2]; [12]
  E-cadherin expression (immunofluorescence): increase
  vimentin expression (immunofluorescence): decrease
[3]
  intracellular retention of fluorescent calcein: increase
[4]
  toxicity compared to simvastatin: low toxicity
HT-29 cells [5]; 3 000 mg/kg HPβCD i.p.
  average reduction in tumour size: ~17%
HT-29 cells [5]; FIG. 9
  tumour size, visually: reduced
HT-29 cells [5]
  Average tumour size: 1983 mm^3
  Average tumour weight: 3.5125 g
  Tumour reduction: -17.6%
  Tumour gain or reduction: 9.17%
[6]; 3 000 mg/kg HPβCD i.p. with OXAL or 5FU
  effect of HPβCD on toxicity of the co-administered chemotherapy: decreased the toxicity of OXAL; also recorded: reduced toxicity of OXAL; also recorded: reduce toxicity related to 5FU
[7]; untreated average 51 mg/dL
  average level of serum cholesterol: 65.5 mg/dL
[8]
  AST:ALT ratio: 1.67 U/L
  liver toxicity (in words): no observed liver toxicity
NMuMg cells [9]; 10 mM HPβCD, 10 μM simvastatin for 2 hours
  effect on cholesterol efflux (gene expression): drastically affected

## O=c1[nH]cc(F)c(=O)[nH]1 [5FU, 5-Fluorouracil]
HT-29 cells [5]
  Average tumour size: 841.4 mm^3
  Average tumour weight: 1.4475 g
  Tumour reduction: -65.1%
  Tumour gain or reduction: -55%
[7]
  serum cholesterol levels (in words): significantly higher

## [Cl][Co][Cl] [CoCl2, cobalt chloride]
MCF-7 cells; [13]
  E-cadherin expression following EMT induction: significantly decreased
  Vimentin expression following EMT induction: significantly increased

## O=C1[O][Pt]2([NH][C@@H]3CCCC[C@H]3[NH]2)[O]C1=O [OXAL, Oxaliplatin]
HT-29 cells [5]
  Average tumour size: 1413 mm^3
  Average tumour weight: 1.6975 g
  Tumour reduction: -41.3%
  Tumour gain or reduction: -47.2%
HT-29 cells [5]; mouse, in vivo
  metastasis at dissection: metastasis almost throughout the body in one mouse
[6]; 6 treatments of OXAL alone, 10 mg/kg i.p.
  unexpected death of mice in treatment group: 50%
[6]; OXAL alone 6 treatments, OXAL with HPβCD all 12 treatments of the same dose
  health outcome of treated mice: 2 died and 2 had to be euthanized
[7]
  serum cholesterol levels (in words): significantly higher

## Methyl-β-cyclodextrin [MβCD]
[3]
  intracellular retention of fluorescent calcein: increase
NMuMg cells [9]; 1 mM MβCD for 2 hours
  effect on cholesterol biosynthesis and influx (gene expression): more significant effect

## interleukin-6 [IL-6]
HT-29 cells [2]; [14]
  E-cadherin expression following EMT induction: significantly decreased
  Vimentin expression following EMT induction: significantly increased

## transforming growth factor beta 1 [TGF-β]
NMuMg cells [1]; [15]
  E-cadherin expression following EMT induction: significantly decreased
  Vimentin expression following EMT induction: significantly increased

Source: patent US20260034161A1, “2-HYDROXYPROPYL-BETA-CYCLODEXTRIN AS A CANCER THERAPY NEOADJUVANT OR ADJUVANT” (University of the Witwatersrand, Johannesburg, priority 2022, published 2026)
